{"source": "patent US20100305098A1", "about": "“METHODS OF USE” (priority 2007, published 2010)", "key": {"PAR2": {"biological_target": "T1, PAR2 (Homo sapiens, UniProt P55085)", "T1 construct": "Millipore", "experiment": "FLIPR functional screen", "type": "cell-based", "conditions": "antagonist mode"}, "V1B": {"biological_target": "T2, V1B (Homo sapiens, UniProt P47901)", "T2 construct": "Millipore", "T2 sequence (P47901 whole entry)": "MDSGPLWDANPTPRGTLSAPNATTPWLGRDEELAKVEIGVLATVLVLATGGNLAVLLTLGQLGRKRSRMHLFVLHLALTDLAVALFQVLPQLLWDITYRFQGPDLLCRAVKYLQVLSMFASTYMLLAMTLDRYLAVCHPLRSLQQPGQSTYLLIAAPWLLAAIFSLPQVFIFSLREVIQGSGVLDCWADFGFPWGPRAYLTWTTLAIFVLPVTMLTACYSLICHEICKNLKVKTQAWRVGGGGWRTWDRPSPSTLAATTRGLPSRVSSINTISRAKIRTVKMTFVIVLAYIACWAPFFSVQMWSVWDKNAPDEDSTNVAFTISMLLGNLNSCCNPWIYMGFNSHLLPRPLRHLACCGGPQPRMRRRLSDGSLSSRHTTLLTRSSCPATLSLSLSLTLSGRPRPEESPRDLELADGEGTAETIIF", "experiment": "FLIPR functional screen", "type": "cell-based", "conditions": "antagonist mode"}, "H1": {"biological_target": "T3, H1 (Homo sapiens, UniProt P35367)", "T3 construct": "Millipore", "experiment": "FLIPR functional screen", "type": "cell-based", "conditions": "antagonist mode"}, "S1P2": {"biological_target": "T4, S1P2 (Homo sapiens, UniProt O95136)", "T4 construct": "Millipore", "experiment": "FLIPR functional screen", "type": "cell-based", "conditions": "antagonist mode"}, "SST3": {"biological_target": "T5, SST3 (Homo sapiens, UniProt P32745)", "T5 construct": "Millipore", "experiment": "FLIPR functional screen", "type": "cell-based", "conditions": "antagonist mode"}, "Mouse CD4+ T cells": {"test_system": "Mouse CD4+ T cells", "experiment": "IL-23 induced Th17 expansion", "type": "cell-based", "conditions": "120 h, anti-TCR/anti-CD28 mAb and IL-23 (30 ng/ml), 5 days, FACS, read-out: IC50 for reduction of IL-23-induced Th17-producing cells", "method": "IL-23 induced Th17 expansion. CD4^+ T cells were isolated from C57BL/6 mice and activated with anti-TCR (1 μg/ml plate-bound) and anti-CD28 (2 μg/ml soluble) with or without IL-23 (30 ng/ml) for 5 days. IL-17 producing cells were analyzed by IL-17 intracellular staining as described by manufacture (BD).\nThe effect of ER-819924-01 on IL-23-induced Th17 expansion was studied in vitro (FIG. 9). Mouse CD4^+ T cells were cultured with anti-TCR/anti-CD28 mAb and IL-23 (30 ng/ml) in the presence or absence of ER-819924-01 or anti-PGE2 Ab for 5 days. IL-17 producing T cells were analyzed by FACS of intracellular staining. ER-819924-01 reduced the number of IL-23-induced Th17-producing cells with an IC50 value of ˜10-100 nM."}, "V1A": {"biological_target": "T6, V1A (Homo sapiens, UniProt P37288)", "T6 construct": "Millipore", "experiment": "FLIPR functional screen", "type": "cell-based", "conditions": "antagonist mode"}, "M5": {"biological_target": "T7, M5 (Homo sapiens, UniProt P08912)", "T7 construct": "Millipore", "experiment": "FLIPR functional screen", "type": "cell-based", "conditions": "antagonist mode"}, "CRF1": {"biological_target": "T8, CRF1 (Homo sapiens, UniProt P34998)", "T8 construct": "Millipore", "experiment": "FLIPR functional screen", "type": "cell-based", "conditions": "antagonist mode"}, "CXCR2": {"biological_target": "T9, CXCR2 (Homo sapiens, UniProt P25025)", "T9 construct": "Millipore", "T9 sequence (P25025 whole entry, species assumed)": "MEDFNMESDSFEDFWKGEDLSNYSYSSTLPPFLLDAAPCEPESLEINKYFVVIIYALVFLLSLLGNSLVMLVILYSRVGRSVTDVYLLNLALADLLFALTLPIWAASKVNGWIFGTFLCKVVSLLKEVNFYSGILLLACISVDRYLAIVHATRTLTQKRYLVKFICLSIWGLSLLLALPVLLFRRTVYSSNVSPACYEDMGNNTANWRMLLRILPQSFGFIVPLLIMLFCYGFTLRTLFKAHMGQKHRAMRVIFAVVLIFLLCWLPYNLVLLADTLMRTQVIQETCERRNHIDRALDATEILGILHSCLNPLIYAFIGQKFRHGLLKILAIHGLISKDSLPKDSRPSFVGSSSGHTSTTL", "experiment": "FLIPR functional screen", "type": "cell-based", "conditions": "antagonist mode"}, "NK2": {"biological_target": "T10, NK2 (Homo sapiens, UniProt P21452)", "T10 construct": "Millipore", "T10 sequence (P21452 whole entry)": "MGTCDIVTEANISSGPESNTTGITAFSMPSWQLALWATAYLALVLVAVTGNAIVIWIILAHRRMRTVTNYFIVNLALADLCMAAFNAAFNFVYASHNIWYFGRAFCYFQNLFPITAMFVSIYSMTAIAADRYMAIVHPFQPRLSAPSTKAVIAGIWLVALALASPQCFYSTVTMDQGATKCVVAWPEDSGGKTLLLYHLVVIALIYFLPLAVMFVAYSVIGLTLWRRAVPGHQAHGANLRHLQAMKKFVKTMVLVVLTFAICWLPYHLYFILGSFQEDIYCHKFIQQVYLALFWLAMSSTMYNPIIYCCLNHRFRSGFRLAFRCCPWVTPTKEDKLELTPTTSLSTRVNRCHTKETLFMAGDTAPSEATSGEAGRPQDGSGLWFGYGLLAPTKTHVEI", "experiment": "FLIPR functional screen", "type": "cell-based", "conditions": "antagonist mode"}, "NOP": {"biological_target": "T11, NOP (Homo sapiens, UniProt P41146)", "T11 construct": "Millipore", "experiment": "FLIPR functional screen", "type": "cell-based", "conditions": "antagonist mode"}, "M2": {"biological_target": "T12, M2 (Homo sapiens, UniProt P08172)", "T12 construct": "Millipore", "experiment": "FLIPR functional screen", "type": "cell-based", "conditions": "antagonist mode"}, "CYSLT1": {"biological_target": "T13, CYSLT1 (Homo sapiens, UniProt Q9Y271)", "T13 construct": "Millipore", "T13 sequence (Q9Y271 whole entry, species assumed)": "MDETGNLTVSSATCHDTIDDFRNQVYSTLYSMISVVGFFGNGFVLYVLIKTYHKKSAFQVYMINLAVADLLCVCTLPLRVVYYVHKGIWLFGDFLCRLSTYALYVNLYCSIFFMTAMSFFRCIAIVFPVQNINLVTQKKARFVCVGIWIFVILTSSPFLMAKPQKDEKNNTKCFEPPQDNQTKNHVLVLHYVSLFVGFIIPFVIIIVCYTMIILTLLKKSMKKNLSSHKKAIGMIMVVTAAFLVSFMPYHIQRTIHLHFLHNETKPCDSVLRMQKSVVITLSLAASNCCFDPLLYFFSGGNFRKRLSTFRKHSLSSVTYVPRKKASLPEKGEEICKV", "experiment": "FLIPR functional screen", "type": "cell-based", "conditions": "antagonist mode"}, "M3": {"biological_target": "T14, M3 (Homo sapiens, UniProt P20309)", "T14 construct": "Millipore", "T14 sequence (P20309 whole entry)": "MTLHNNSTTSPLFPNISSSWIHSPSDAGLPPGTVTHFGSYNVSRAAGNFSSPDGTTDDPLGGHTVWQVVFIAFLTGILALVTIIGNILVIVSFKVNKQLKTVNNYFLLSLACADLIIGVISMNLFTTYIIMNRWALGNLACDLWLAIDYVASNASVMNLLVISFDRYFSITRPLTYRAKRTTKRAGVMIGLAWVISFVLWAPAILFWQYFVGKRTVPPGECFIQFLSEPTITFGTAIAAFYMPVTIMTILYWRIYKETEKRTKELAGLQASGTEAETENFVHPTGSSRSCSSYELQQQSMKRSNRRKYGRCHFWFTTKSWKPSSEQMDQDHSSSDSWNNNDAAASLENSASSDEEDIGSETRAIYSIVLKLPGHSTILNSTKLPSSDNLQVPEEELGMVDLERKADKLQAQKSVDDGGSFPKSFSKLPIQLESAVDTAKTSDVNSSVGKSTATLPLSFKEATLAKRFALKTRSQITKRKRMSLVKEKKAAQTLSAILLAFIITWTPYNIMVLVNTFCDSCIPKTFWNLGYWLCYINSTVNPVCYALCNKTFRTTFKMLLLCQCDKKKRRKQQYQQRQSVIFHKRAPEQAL", "experiment": "FLIPR functional screen", "type": "cell-based", "conditions": "antagonist mode"}, "CCR4": {"biological_target": "T15, CCR4 (Homo sapiens, UniProt P51679)", "T15 construct": "Millipore", "experiment": "FLIPR functional screen", "type": "cell-based", "conditions": "antagonist mode"}, "GNRHR": {"biological_target": "T16, GNRHR (Homo sapiens, UniProt P30968)", "T16 construct": "Millipore", "experiment": "FLIPR functional screen", "type": "cell-based", "conditions": "antagonist mode"}, "MC4": {"biological_target": "T17, MC4 (Homo sapiens, UniProt P32245)", "T17 construct": "Millipore", "experiment": "FLIPR functional screen", "type": "cell-based", "conditions": "antagonist mode"}, "CCR9": {"biological_target": "T18, CCR9 (Homo sapiens, UniProt P51686)", "T18 construct": "Millipore", "experiment": "FLIPR functional screen", "type": "cell-based", "conditions": "antagonist mode"}, "[1]": {"biological_target": "T19, Prostanoid, Thromboxane A2 (TP) (Homo sapiens, UniProt P21731)", "T19 construct": "purchased MDS Pharma (outsourced assay)", "T19 sequence (P21731 whole entry)": "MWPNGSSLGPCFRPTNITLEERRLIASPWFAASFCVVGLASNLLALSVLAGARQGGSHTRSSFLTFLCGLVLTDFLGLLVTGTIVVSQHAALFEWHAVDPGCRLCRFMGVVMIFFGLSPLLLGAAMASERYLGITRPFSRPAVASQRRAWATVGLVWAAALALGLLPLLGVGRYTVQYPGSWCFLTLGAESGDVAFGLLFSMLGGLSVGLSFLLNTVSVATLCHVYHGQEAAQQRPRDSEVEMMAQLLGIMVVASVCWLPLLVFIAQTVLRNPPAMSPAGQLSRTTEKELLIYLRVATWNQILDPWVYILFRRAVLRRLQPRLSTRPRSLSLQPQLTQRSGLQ", "experiment": "Competitive radioligand binding (MDS Pharma)"}, "GIPR": {"biological_target": "T20, GIPR (Homo sapiens, UniProt P48546)", "T20 construct": "Millipore", "experiment": "FLIPR functional screen", "type": "cell-based", "conditions": "antagonist mode"}, "Prostanoid EP2": {"biological_target": "T21, Prostanoid EP2 (Homo sapiens, UniProt P43116)", "T21 construct": "purchased MDS Pharma (outsourced assay)", "T21 sequence (P43116 whole entry)": "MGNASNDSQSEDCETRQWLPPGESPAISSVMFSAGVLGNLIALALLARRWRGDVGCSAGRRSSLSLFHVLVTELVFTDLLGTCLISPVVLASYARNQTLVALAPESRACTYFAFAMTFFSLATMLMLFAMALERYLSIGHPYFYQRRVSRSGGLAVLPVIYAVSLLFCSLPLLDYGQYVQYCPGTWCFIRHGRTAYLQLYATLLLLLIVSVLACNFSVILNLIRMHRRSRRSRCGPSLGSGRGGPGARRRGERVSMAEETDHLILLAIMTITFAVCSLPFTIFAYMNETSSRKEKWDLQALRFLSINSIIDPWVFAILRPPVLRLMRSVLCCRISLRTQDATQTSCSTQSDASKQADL", "experiment": "Competitive radioligand binding (MDS Pharma)"}, "NK1": {"biological_target": "T22, NK1 (Homo sapiens, UniProt P25103)", "T22 construct": "Millipore", "experiment": "FLIPR functional screen", "type": "cell-based", "conditions": "antagonist mode"}, "5-HT2A": {"biological_target": "T23, 5-HT2A (Homo sapiens, UniProt P28223)", "T23 construct": "purchased Millipore (outsourced screen)", "experiment": "FLIPR functional screen", "type": "cell-based", "conditions": "antagonist mode"}, "DP": {"biological_target": "T24, DP (Homo sapiens, UniProt Q13258)", "T24 construct": "Millipore", "experiment": "FLIPR functional screen", "type": "cell-based", "conditions": "antagonist mode"}, "V2": {"biological_target": "T25, V2 (Homo sapiens, UniProt P30518)", "T25 construct": "Millipore", "T25 sequence (P30518 whole entry)": "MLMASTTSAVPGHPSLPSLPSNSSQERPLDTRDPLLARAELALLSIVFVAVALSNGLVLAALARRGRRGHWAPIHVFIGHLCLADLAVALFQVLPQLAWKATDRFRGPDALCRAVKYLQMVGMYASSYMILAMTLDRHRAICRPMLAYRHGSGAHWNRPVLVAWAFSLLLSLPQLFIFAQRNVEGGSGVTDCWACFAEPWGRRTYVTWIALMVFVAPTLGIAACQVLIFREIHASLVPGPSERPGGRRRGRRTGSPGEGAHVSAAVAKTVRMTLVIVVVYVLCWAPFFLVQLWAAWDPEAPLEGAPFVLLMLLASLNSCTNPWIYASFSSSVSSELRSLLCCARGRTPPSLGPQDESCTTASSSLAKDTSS", "experiment": "FLIPR functional screen", "type": "cell-based", "conditions": "antagonist mode"}, "TRH": {"biological_target": "T26, TRH (Homo sapiens, UniProt P34981)", "T26 construct": "Millipore", "T26 sequence (P34981 whole entry)": "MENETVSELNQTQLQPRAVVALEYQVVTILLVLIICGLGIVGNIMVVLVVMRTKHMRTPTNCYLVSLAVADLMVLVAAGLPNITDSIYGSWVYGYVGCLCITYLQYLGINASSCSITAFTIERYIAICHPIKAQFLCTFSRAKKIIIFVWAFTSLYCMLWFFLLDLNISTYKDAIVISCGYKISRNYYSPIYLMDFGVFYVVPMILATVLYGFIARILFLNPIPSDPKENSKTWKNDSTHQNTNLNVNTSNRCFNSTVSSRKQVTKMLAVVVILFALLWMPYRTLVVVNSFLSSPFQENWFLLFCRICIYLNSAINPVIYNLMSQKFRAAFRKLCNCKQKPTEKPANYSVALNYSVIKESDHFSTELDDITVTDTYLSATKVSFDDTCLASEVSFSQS", "experiment": "FLIPR functional screen", "type": "cell-based", "conditions": "antagonist mode"}, "CCR1": {"biological_target": "T27, CCR1 (Homo sapiens, UniProt P32246)", "T27 construct": "Millipore", "experiment": "FLIPR functional screen", "type": "cell-based", "conditions": "antagonist mode"}, "OPRM1": {"biological_target": "T28, OPRM1 (Homo sapiens, UniProt P35372)", "T28 construct": "Millipore", "experiment": "FLIPR functional screen", "type": "cell-based", "conditions": "antagonist mode"}, "NK3": {"biological_target": "T29, NK3 (Homo sapiens, UniProt P29371)", "T29 construct": "Millipore", "experiment": "FLIPR functional screen", "type": "cell-based", "conditions": "antagonist mode"}, "PTH2": {"biological_target": "T30, PTH2 (Homo sapiens, UniProt P49190)", "T30 construct": "Millipore", "T30 sequence (P49190 25-550)": "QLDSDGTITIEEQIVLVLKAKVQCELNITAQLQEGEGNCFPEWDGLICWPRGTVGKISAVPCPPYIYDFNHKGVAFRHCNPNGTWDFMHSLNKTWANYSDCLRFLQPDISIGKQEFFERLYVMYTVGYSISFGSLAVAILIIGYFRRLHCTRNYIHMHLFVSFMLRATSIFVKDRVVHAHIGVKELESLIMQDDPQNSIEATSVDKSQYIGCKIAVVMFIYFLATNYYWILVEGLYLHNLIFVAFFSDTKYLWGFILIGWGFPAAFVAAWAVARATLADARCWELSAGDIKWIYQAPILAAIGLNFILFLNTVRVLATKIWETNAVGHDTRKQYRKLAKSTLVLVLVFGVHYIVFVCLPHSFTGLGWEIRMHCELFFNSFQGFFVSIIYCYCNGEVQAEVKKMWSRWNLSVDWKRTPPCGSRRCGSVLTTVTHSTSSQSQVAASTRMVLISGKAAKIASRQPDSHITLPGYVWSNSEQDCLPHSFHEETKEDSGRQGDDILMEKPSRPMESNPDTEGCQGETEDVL", "experiment": "FLIPR functional screen", "type": "cell-based", "conditions": "antagonist mode"}, "OT": {"biological_target": "T31, OT (Homo sapiens, UniProt P30559)", "T31 construct": "Millipore", "experiment": "FLIPR functional screen", "type": "cell-based", "conditions": "antagonist mode"}, "TP": {"biological_target": "T32, TP (Homo sapiens, UniProt P21731)", "T32 construct": "Millipore", "T32 sequence (P21731 whole entry)": "as the sequence (P21731 whole entry) above", "experiment": "FLIPR functional screen", "type": "cell-based", "conditions": "antagonist mode"}, "GPR40": {"biological_target": "T33, GPR40 (Homo sapiens, UniProt O14842)", "T33 construct": "Millipore", "T33 sequence (O14842 whole entry, species assumed)": "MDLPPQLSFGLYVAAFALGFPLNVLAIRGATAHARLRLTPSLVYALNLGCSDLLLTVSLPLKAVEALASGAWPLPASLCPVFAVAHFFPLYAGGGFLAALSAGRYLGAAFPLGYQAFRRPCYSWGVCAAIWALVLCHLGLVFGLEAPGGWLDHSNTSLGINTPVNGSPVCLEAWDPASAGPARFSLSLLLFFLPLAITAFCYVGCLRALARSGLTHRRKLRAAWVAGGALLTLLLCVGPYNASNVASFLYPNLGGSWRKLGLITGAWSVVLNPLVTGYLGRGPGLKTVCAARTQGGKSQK", "experiment": "FLIPR functional screen", "type": "cell-based", "conditions": "antagonist mode"}, "S1P1": {"biological_target": "T34, S1P1 (Homo sapiens, UniProt P21453)", "T34 construct": "Millipore", "T34 sequence (P21453 whole entry, species assumed)": "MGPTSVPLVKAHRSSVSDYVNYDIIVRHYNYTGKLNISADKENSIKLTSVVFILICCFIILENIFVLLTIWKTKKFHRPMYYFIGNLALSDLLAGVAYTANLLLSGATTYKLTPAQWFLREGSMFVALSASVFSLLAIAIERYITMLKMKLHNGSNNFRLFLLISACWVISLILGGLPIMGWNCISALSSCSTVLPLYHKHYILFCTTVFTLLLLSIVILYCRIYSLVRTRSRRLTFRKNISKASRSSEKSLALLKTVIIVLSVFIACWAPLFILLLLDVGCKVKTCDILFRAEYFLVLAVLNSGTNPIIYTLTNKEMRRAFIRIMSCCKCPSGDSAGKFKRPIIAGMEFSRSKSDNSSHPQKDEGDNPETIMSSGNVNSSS", "experiment": "FLIPR functional screen", "type": "cell-based", "conditions": "antagonist mode"}}, "note": "pIC50: −log10 of the molar value.", "data": [{"smiles": "CCN1C(=O)N2Cc3cc(OC)cc(OC)c3[C@@H](C)C=C2C12CCN(Cc1cccn1C)CC2", "note": "[ER-819924-01]", "values": [{"measurement": "inhibition at 1 µM", "setting": "PAR2", "result": -0.8, "unit": "%"}, {"measurement": "inhibition at 1 µM", "setting": "V1B", "result": 4.7, "unit": "%"}, {"measurement": "inhibition at 1 µM", "setting": "H1", "result": -39.3, "unit": "%"}, {"measurement": "inhibition at 1 µM", "setting": "S1P2", "result": -0.5, "unit": "%"}, {"measurement": "inhibition at 1 µM", "setting": "SST3", "result": -19.7, "unit": "%"}, {"measurement": "pIC50", "setting": "Mouse CD4+ T cells", "result": "7.00 to 8.00"}, {"measurement": "inhibition at 1 µM", "setting": "V1A", "result": -3.9, "unit": "%"}, {"measurement": "inhibition at 1 µM", "setting": "M5", "result": 10.1, "unit": "%"}, {"measurement": "inhibition at 1 µM", "setting": "CRF1", "result": 3.9, "unit": "%"}, {"measurement": "inhibition at 1 µM", "setting": "CXCR2", "result": 1.2, "unit": "%"}, {"measurement": "inhibition at 1 µM", "setting": "NK2", "result": 2.1, "unit": "%"}, {"measurement": "inhibition at 1 µM", "setting": "NOP", "result": 1, "unit": "%"}, {"measurement": "inhibition at 1 µM", "setting": "M2", "result": 1.5, "unit": "%"}, {"measurement": "inhibition at 1 µM", "setting": "CYSLT1", "result": -1.6, "unit": "%"}, {"measurement": "inhibition at 1 µM", "setting": "M3", "result": 8.9, "unit": "%"}, {"measurement": "inhibition at 1 µM", "setting": "CCR4", "result": -13.4, "unit": "%"}, {"measurement": "inhibition at 1 µM", "setting": "GNRHR", "result": 35.8, "unit": "%"}, {"measurement": "inhibition at 1 µM", "setting": "MC4", "result": -5.1, "unit": "%"}, {"measurement": "inhibition at 1 µM", "setting": "CCR9", "result": -9.1, "unit": "%"}, {"measurement": "% INHIBITION", "setting": "[1]; CONC. 0.1 μm", "result": "−3", "unit": "%"}, {"measurement": "% INHIBITION", "setting": "[1]; CONC. 1 μm", "result": "−14", "unit": "%"}, {"measurement": "inhibition at 1 µM", "setting": "GIPR", "result": -14.9, "unit": "%"}, {"measurement": "% INHIBITION", "setting": "Prostanoid EP2; CONC. 0.1 μm", "result": "−3", "unit": "%"}, {"measurement": "% INHIBITION", "setting": "Prostanoid EP2; CONC. 1 μm", "result": 1, "unit": "%"}, {"measurement": "inhibition at 1 µM", "setting": "NK1", "result": 2.9, "unit": "%"}, {"measurement": "inhibition at 1 µM", "setting": "5-HT2A", "result": 8.8, "unit": "%"}, {"measurement": "inhibition at 1 µM", "setting": "DP", "result": -5.8, "unit": "%"}, {"measurement": "inhibition at 1 µM", "setting": "V2", "result": -24.8, "unit": "%"}, {"measurement": "inhibition at 1 µM", "setting": "TRH", "result": -11.1, "unit": "%"}, {"measurement": "inhibition at 1 µM", "setting": "CCR1", "result": -8.2, "unit": "%"}, {"measurement": "inhibition at 1 µM", "setting": "OPRM1", "result": 35, "unit": "%"}, {"measurement": "inhibition at 1 µM", "setting": "NK3", "result": -2.2, "unit": "%"}, {"measurement": "inhibition at 1 µM", "setting": "PTH2", "result": -6.2, "unit": "%"}, {"measurement": "inhibition at 1 µM", "setting": "OT", "result": 4.6, "unit": "%"}, {"measurement": "inhibition at 1 µM", "setting": "TP", "result": 1.8, "unit": "%"}, {"measurement": "inhibition at 1 µM", "setting": "GPR40", "result": -4.6, "unit": "%"}, {"measurement": "inhibition at 1 µM", "setting": "S1P1", "result": 3.9, "unit": "%"}]}]}
